Results on two molecules are retold here after publication PMC11801377, “A uniquely efficacious type of CFTR corrector with complementary mode of action” (Science Advances, 2024).

The experiment has as its target T1, G551D-CFTR (Homo sapiens, UniProt P13569, G551D).
T1 construct: expressed in transfected cells; host or cells: T-REx HEK293, also transduced with halide-sensitive YFP
Put plainly: YFP quenching copotentiation assay in HEK-G551D-CFTR cells (acute treatment). The experiment is classed as cell-based. The settings on record: HEK293 cells, 10 min incubation. The source says: The human CFTR expressing HEK cell pools with the mutations described below were generated by integrase-mediated homologous recombination of the CFTR sequence into the T-REx HEK293 background (Thermo Fisher Scientific). This expression system allows the tetracycline-inducible expression of genes of interest from one defined insertion site. Parental T-REx-HEK293 cells were cultivated in growth medium: Dulbecco’s modified Eagle’s medium + GlutaMAX-I (#31966, Life Technologies), 10% dialyzed FBS (Gibco, #26400), penicillin (100 U/ml), streptomycin (100 μg/ml), hygromycin B (0.1 mg/ml; Life Technologies), blasticidin (5 μg/ml; Invitrogen, #R210-01), and 0.1 mM nonessential amino acid solution (Invitrogen, #11140-035). Recombinant T-REx-HEK-CFTR cells were generated by lipofectamine transfection (Life Technologies) of plasmids containing mutated versions of CFTR (RefSeq NM_000492) and then cultivated in selection medium [growth medium containing Geneticin (1 mg/ml) (Invitrogen, #10131-027) instead of hygromycin]. The plasmid constructs were synthetized by GENEART (Thermo Fisher Scientific) and designed with the WT CFTR intron 5 to 6 (880 nucleotides) to prevent leaky expression issues during the cloning process in bacteria. […]

T1 sequence (P13569 whole entry G551D): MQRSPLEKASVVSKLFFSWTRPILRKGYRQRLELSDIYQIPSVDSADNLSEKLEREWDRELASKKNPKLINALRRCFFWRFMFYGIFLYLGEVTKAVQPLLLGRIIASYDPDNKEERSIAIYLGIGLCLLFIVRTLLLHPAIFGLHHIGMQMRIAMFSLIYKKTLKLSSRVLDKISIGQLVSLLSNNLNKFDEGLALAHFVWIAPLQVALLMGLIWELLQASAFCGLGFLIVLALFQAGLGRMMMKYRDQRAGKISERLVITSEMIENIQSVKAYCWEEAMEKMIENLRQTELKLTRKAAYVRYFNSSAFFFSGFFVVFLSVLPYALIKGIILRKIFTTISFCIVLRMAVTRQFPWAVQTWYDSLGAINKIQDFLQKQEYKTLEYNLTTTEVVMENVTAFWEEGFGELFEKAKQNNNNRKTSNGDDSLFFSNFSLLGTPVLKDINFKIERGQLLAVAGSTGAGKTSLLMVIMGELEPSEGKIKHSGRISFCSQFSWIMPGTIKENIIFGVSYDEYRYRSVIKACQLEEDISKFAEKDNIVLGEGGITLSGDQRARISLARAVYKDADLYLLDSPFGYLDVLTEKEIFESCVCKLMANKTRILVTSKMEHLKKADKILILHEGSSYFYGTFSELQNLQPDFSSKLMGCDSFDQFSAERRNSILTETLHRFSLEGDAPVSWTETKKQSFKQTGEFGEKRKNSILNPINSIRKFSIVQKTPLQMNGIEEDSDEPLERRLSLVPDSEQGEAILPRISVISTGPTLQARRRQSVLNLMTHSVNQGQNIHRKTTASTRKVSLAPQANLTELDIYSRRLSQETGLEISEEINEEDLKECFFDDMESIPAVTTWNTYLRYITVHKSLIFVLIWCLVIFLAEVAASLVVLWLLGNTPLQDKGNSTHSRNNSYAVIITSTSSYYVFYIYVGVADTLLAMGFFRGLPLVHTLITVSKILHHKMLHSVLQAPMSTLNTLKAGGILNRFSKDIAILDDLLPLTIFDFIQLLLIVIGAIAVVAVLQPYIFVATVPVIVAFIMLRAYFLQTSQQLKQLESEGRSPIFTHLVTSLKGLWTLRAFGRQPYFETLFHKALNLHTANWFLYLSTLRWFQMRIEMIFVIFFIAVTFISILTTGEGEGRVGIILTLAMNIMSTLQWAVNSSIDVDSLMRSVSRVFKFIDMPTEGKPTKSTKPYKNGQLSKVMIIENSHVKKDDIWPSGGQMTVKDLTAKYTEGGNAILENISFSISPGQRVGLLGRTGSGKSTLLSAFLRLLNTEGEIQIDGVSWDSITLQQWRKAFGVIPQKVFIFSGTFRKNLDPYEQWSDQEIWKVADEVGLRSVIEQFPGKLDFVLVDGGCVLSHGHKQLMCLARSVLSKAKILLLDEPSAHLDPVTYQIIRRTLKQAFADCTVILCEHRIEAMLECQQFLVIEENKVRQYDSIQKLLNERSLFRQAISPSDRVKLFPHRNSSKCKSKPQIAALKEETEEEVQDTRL

As for `Cc1nn(C)cc1S(=O)(=O)NC(=O)c1ccc(-n2ccc(OCC(C)(C)C(F)(F)F)n2)nc1N1C[C@@H](C)CC1(C)C` [ELX, elexacaftor], the “acute effect on IVA activity at G551D-CFTR” value was “copotentiation of IVA activity”.

On to `COc1cc(CCNC(=O)C2CC(=O)N(C)C(CC(C)C)C(=O)N3CCCCC3C(=O)NC(Cc3ccccc3)COc3ccc4ncc(F)cc4c3C(=O)N2)on1` (centres unmarked) [IDOR-3], for which the “acute effect on IVA activity at G551D-CFTR” value is “copotentiation of IVA activity”.
